Data taken from patent US11191765B2, “Heterocyclic compounds for the inhibition of PASK” (BioEnergenix LLC, priority 2012, dated 2021).

Tests used:
PASK = PASK (UniProt #Q96RG2; human recombinant N-terminal GST tagged construct, residues 879-1323) (Homo sapiens (Human), UniProt Q96RG2); assay: PASK ATP Radiochemical Assay; type: biochemical; details: radiochemical 33P-ATP assay, Myelin Basic Protein substrate, 120 min at room temperature; read-out: IC50 Kinase Domain
Protocol: Biochemical Assay for hPASK Activity
PASK ATP Radiochemical Assay
Purified PASK (UniProt #Q96RG2; human recombinant N-terminal GST tagged construct, residues 879-1323) from insect cells (final concentration 5 nM) is added to freshly prepared Base Reaction Buffer containing 20 mM HEPES (pH 7.5), 10 mM MgCl2, 1 mM EGTA, 0.02% Brij35, 0.02 mg/ml BSA, 0.1 mM Na3VO4, 2 mM DTT, 1% DMSO and Myelin Basic Protein (20 μM final). Test compounds in DMSO are then added and the mixture, followed by delivery of ^33P-ATP (specific activity 0.01 μCi/μl final) to initiate the reaction. The kinase reaction is incubated for 120 min at room temperature. The entire reaction mixture is washed through onto a P81 Phosphocellulose paper and washed three times for 10 minutes in 75 mM phosphoric acid and once in methanol prior to drying and scintillation counting.

PASK (Invitrogen) = PASK (Invitrogen) (Homo sapiens (Human), UniProt Q96RG2); assay: PAS Kinase FRET Assay; type: biochemical; details: TR-FRET (665 nm/615 nm), Ulight-peptide substrate, 2 hours at 25° C.; read-out: IC50 Kinase Domain
Description: The aim of the FRET assay is to determine the inhibition potential of test compounds on targeted kinase. This assay platform provides a homogenous screening method for measuring kinase activity by quantitating the amount of phospho-substrate in solution following a kinase reaction.
In the presence of kinase and ATP, the Ulight-peptide is phosphorylated and captured by an anti-phospho-substrate antibody, which brings the Eu chelate donor and Ulight acceptor dyes into close proximity. Upon excitation at 340 nm, the Eu chelate transfers its energy to the Ulight dye, resulting in a fluorescent light emission at 665 nm.
Titration of kinase at 1 mM ATP was achieved via the following protocol. After making serial three-fold dilutions of PASK (Invitrogen) in reaction buffer across the plate; 5 μl of kinase dilution and 5 μl substrate/ATP mix were added to the wells of the white Optiplate-384 (PerkinElmer). The contents of the plate were and incubated at RT for 1 h. The reaction was stopped by adding 5 μl of stop solution to each test well followed by mixing and incubation at RT for 10 minutes. 5 μl of detection mix (detection antibody diluted in detection buffer) was added; the contents of the plate were mixed and then incubated in the dark for 1 hour at RT. The signal was recorded at TR-FRET mode (665 nm/615 nm). The results were graphed to calculate the EC50.
Titration of ATP at the EC50 concentration of kinase to determine ATP Km,app. was performed using the following method. After making serial dilutions of ATP (Invitrogen), 5 μl of ATP dilution and 5 μl substrate/kinase mix were added to the wells of the white Optiplate-384 (PerkinElmer). The contents of the plate were and incubated at RT for 1 h. The reaction was stopped by adding 5 μl of stop solution to each test well followed by mixing and incubation at RT for 10 minutes. 5 μl of detection mix (detection antibody diluted in detection buffer) was added; the contents of the plate were mixed and then incubated in the dark for 1 hour at RT. The signal was recorded at TR-FRET mode (665 nm/615 nm). The results were graphed to calculate the EC50 as the ATP Km,app.
Compound screening was done via the following method. 10 mM stock solution of test compound in DMSO was prepared by dissolving test compound in DMSO at RT for 1 hour, and then sonicating at 100% output for 8 minutes. If compound is not soluble under this condition, it was diluted to 3 mM. Kinase reaction buffer was prepared containing 10 mM MgCl2, 50 mM HEPES, 1 mM EGTA, 0.01% TWEEN-20, 2 mM DTT. Serial dilutions of the test compounds were prepared at 4×final assay concentrations using Freedom EVO200® dispensing system as follows: 12×10^−5 M, 4×10^−5 M, 1.33×10^−5 M, 4.44×10^−6 M, 1.48×10^−6 M, 4.92×10^−7 M, 1.65×10^−7 M, 5.48×10^−7 M, 1.82×10^−8 M, 6.09×10^−9, 2.03×10^−9 M. Test compounds (2.5 μl at 4×the final assay concentration) was added to wells using Freedom EVO200® dispensing system. As a positive control, 2.5 μl of positive compound was added to assay wells, and 2.5 μl of DMSO to assay wells as vehicle control. Kinase solution was prepared in reaction buffer at 2×final assay concentration. Kinase solution (5 μl) was added to each well of the assay plate. The substrate and ATP solution was prepared in kinase reaction buffer at 4×final assay concentration. The kinase reaction was started by adding 2.5 μl of substrate+ATP mix solution to each well of the assay plate. The plate is mixed on a plate shaker; then covered and allowed to react for 2 hours in the dark at 25° C. without shaking. The reaction was stopped by adding 5 μl of stop solution to each test well followed by mixing and incubation at RT for 10 minutes in the dark. 5 μl of detection mix (detection antibody diluted in detection buffer) was added; the contents of the plate were mixed and then incubated in the dark for 1 hour at RT. The signal was recorded at TR-FRET mode (665 nm/615 nm).

Sequence of PASK (Q96RG2 879-1323, change not shown): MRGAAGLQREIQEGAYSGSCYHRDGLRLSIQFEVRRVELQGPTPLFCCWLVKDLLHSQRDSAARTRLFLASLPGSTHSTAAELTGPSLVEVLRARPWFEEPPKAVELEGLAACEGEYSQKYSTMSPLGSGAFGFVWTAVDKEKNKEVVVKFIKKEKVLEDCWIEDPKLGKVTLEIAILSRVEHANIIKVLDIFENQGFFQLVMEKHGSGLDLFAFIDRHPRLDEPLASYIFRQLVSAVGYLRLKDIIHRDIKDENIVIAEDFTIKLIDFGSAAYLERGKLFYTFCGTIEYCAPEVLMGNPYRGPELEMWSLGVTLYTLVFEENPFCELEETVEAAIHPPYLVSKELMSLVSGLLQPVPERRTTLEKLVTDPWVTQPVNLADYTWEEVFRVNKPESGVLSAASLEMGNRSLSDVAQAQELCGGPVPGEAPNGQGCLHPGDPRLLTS
Sequence of PASK (Invitrogen) (Q96RG2 999-1251): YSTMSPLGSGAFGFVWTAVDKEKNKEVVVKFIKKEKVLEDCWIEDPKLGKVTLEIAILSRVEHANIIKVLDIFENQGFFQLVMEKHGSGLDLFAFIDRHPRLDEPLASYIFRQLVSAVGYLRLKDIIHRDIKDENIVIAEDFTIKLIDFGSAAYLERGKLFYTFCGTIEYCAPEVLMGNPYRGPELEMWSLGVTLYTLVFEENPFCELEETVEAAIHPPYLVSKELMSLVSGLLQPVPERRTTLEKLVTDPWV

Structure (SMILES)	IC50 (PASK)	IC50 (PASK (Invitrogen))
COc1ccc(-c2cc(=O)n3ncnc3[nH]2)cc1 [Example 38, 5-(4-Methoxyphenyl)-[1,2,4]triazolo[1,5-a]pyrimidin-7(4H)-one]	≤ 10 µM	
COc1ccc(-c2nc3[nH]c(-c4ccccc4)cc(=O)n3n2)cc1 [Example 35, 2-(4-Methoxyphenyl)-5-phenyl-[1,2,4]triazolo[1,5-a]pyrimidin-7(4H)-one]	≤ 10 µM	
COc1ccc(-c2cc(=O)n3nc(-c4ccc(Cl)cc4)nc3[nH]2)cc1 [Example 34, 2-(4-Chlorophenyl)-5-(4-methoxyphenyl)-[1,2,4]triazolo[1,5-a]pyrimidin-7(4H)-one]	≤ 10 µM	≤ 10 µM
COc1ccc(-c2cc(=O)n3nc(-c4ccccc4)nc3[nH]2)cc1 [Example 32, 5-(4-Methoxyphenyl)-2-phenyl-[1,2,4]triazolo[1,5-a]pyrimidin-7(4H)-one]	≤ 10 µM	
O=c1cc(-c2ccc3c(c2)OCO3)[nH]c2nc(-c3ccc(Cl)cc3)nn12 [Example 15, 5-(Benzo[d][1,3]dioxol-5-yl)-2-(4-chlorophenyl)-[1,2,4]triazolo[1,5-a]pyrimidin-7(4H)-one]	≤ 10 µM	≤ 10 µM
O=c1cc(-c2ccccc2)[nH]c2nc(-c3ccccc3)nn12 [Example 31, 2,5-Diphenyl-[1,2,4]triazolo[1,5-a]pyrimidin-7(4H)-one]	≤ 10 µM	
Cc1nc2[nH]c(-c3ccc4[nH]nnc4c3)cc(=O)n2n1 [Example 43, 5-(1H-Benzo[d][1,2,3]triazol-5-yl)-2-methyl-[1,2,4]triazolo[1,5-a]pyrimidin-7(4H)-one]		≤ 10 µM
O=c1cc(-c2ccc3c(c2)OCCO3)[nH]c2ncnn12 [Example 17, 5-(2,3-Dihydrobenzo[b][1,4]dioxin-6-yl)-[1,2,4]triazolo[1,5-a]pyrimidin-7(4H)-one]		≤ 10 µM

Results, then the compound that gave them:

IC50 (PASK)	IC50 (PASK (Invitrogen))	Structure (SMILES)
≤ 10 µM		COc1ccccc1-c1cc(=O)n2nc(-c3ccccc3)nc2[nH]1 [Example 30, 5-(2-Methoxyphenyl)-2-phenyl-[1,2,4]triazolo[1,5-a]pyrimidin-7(4H)-one]
≤ 10 µM		COc1ccc(-c2cc(=O)n3ncnc3[nH]2)cc1OC [Example 37, 5-(3,4-Dimethoxyphenyl)-[1,2,4]triazolo[1,5-a]pyrimidin-7(4H)-one]
≤ 10 µM		O=c1cc(-c2ccccc2)[nH]c2nc(-c3ccccc3Cl)nn12 [Example 36, 2-(2-Chlorophenyl)-5-phenyl-[1,2,4]triazolo[1,5-a]pyrimidin-7(4H)-one]
≤ 10 µM	≤ 10 µM	COc1cc(-c2cc(=O)n3nc(-c4ccc(Cl)cc4)nc3[nH]2)ccc1Cl [Example 8, 5-(4-Chloro-3-methoxyphenyl)-2-(4-chlorophenyl)-[1,2,4]triazolo[1,5-a]pyrimidin-7(4H)-one]
≤ 10 µM		COc1cccc(-c2cc(=O)n3nc(-c4ccccc4)nc3[nH]2)c1 [Example 33, 5-(3-Methoxyphenyl)-2-phenyl-[1,2,4]triazolo[1,5-a]pyrimidin-7(4H)-one]
